Experimental data from patent US11903994B2, “Dosing regimens” (Apellis Pharmaceuticals, Inc., priority 2015, dated 2024).
Non-standard residues stand in square brackets, D forms with d. Trp(5-F) = N[C@@H](Cc1c[nH]c2ccc(F)cc12)C(=O)O; Trp(6-F) = N[C@@H](Cc1c[nH]c2cc(F)ccc12)C(=O)O; Bpa = N[C@@H](Cc1ccc(C(=O)c2ccccc2)cc1)C(=O)O; 1Nal = N[C@@H](Cc1cccc2ccccc12)C(=O)O; 2Nal = N[C@@H](Cc1ccc2ccccc2c1)C(=O)O; Igl = N[C@H](C(=O)O)C1Cc2ccccc2C1

Tests used:
[1] = Inhalation study, repeated dosing; format: in vivo, dog; details: 25 mg/kg/d, 7 day repeated dose, inhaled CA28
Protocol: (§1) Inhalation studies of single dose or repeated dosing were conducted in dog and cynomolgus monkey. […] These doses were 25 mg/kg/d in a 7 day repeated dose study in the dog, 80 mg/kg in a single dose study in the monkey, and 30 mg/kg/day in a 14 day repeated dose in the monkey.

[2] = Inhalation studies, single and repeated dosing; format: in vivo, cynomolgus monkey; details: inhaled CA28
Protocol: as §1

[3] = Phase 1 single and multiple ascending dose trial, inhaled (nebulized), healthy volunteers; format: in vivo, human
Protocol: In the single ascending dose part of the trial, 16 subjects were enrolled in four cohorts of four subjects each.
Four subjects were enrolled in the first cohort of the multiple ascending dose part of the trial. These subjects were to receive 14 consecutive days of treatment with a 60 mg/day dose of the drug. […] The trial was paused and subsequently resumed, with subjects receiving 30 mg/day. […] The trial was then terminated.

complement activation = details: relative to compstatin amidated at the C-terminus; published data; cited from earlier work

Molecule | Activity over compstatin (complement activation) [xmore] | other results
CC[C@H](C)[C@H](NC(C)=O)C(=O)N[C@H]1CSSC[C@@H](C(=O)N[C@H](C(N)=O)[C@@H](C)O)NC(=O)[C@H](CCCNC(=N)N)NC(=O)[C@H](Cc2cnc[nH]2)NC(=O)[C@H](C)NC(=O)CNC(=O)[C@H](Cc2c[nH]c3ccccc23)NC(=O)[C@H](CC(=O)O)NC(=O)[C@H](CCC(N)=O)NC(=O)[C@H](Cc2cn(C)c3ccccc23)NC(=O)[C@H](C(C)C)NC1=O [CA28] | – | findings at the highest inhaled dose tested [1]: no drug-related findings; findings at the highest inhaled dose tested ([2]; 30 mg/kg/day, 14 day repeated dose): no drug-related findings; findings at the highest inhaled dose tested ([2]; 80 mg/kg, single dose): no drug-related findings; adverse event possibly related to the pharmacology of the drug ([3]; inhaled CA28 30 mg/day, after 10 days of treatment): Another subject developed signs and symptoms consistent with a potential bacterial infection; adverse event possibly related to the pharmacology of the drug ([3]; inhaled CA28 60 mg/day, following nine days of treatment): one subject developed signs and symptoms consistent with a potential bacterial infection
Ac-ICV(1-Nal)QDWGAHRCT-COOH (Ac-ICV[1Nal]QDWGAHRCT-OH; not fully specified (bridges); printed as Ac-ICV(1-Nal)QDWGAHRCT-COOH; cysteine pairing not given here) [Ac V4(1-Nal)/H9A-OH] | 30 | –
Ac-ICV(2-Nal)QDWGAHRCT-CONH2 (Ac-ICV[2Nal]QDWGAHRCT-NH2; not fully specified (bridges); printed as Ac-ICV(2-Nal)QDWGAHRCT-CONH2; cysteine pairing not given here) [Ac-V4(2-Nal)/H9A] | 99 | –
Ac-ICV(2-Nal)QDWGAHRCT-COOH (Ac-ICV[2Nal]QDWGAHRCT-OH; not fully specified (bridges); printed as Ac-ICV(2-Nal)QDWGAHRCT-COOH; cysteine pairing not given here) [Ac V4(2-Nal)/H9A-OH] | 38 | –
Ac-ICV(2-lgl)QDWGAHRCT-CONH2 (Ac-ICV[Igl]QDWGAHRCT-NH2; not fully specified (bridges); printed as Ac-ICV(2-lgl)QDWGAHRCT-CONH2; cysteine pairing not given here) [Ac-V42lgl/H9A] | 39 | –
Ac-ICV(2-lgl)QDWGAHRCT-COOH (Ac-ICV[Igl]QDWGAHRCT-OH; not fully specified (bridges); printed as Ac-ICV(2-lgl)QDWGAHRCT-COOH; cysteine pairing not given here) [Ac-V42lgl/H9A-OH] | 37 | –
Ac-ICV(5-methyl-W)QDWGAHRCT-CONH2 [Ac-V4(5-MeW)/H9A] | 67 | –
Ac-ICV(5fW)QDWGAHRCT-CONH2 [Ac-V4(5fW)/H9A] | 31 | –
Ac-ICV(Bpa)QDWGAHRCT-CONH2 (Ac-ICV[Bpa]QDWGAHRCT-NH2; not fully specified (bridges); printed as Ac-ICV(Bpa)QDWGAHRCT-CONH2; cysteine pairing not given here) [Ac-V4(Bpa)/H9A] | 86 | –
Ac-ICV(Bpa)QDWGAHRCT-COOH (Ac-ICV[Bpa]QDWGAHRCT-OH; not fully specified (bridges); printed as Ac-ICV(Bpa)QDWGAHRCT-COOH; cysteine pairing not given here) [Ac-V4(Bpa)/H9A-OH] | 49 | –
Ac-ICVDhtQDWGAHRCT-COOH [Ac-V4Dht/H9A-OH] | 5 | –
Ac-ICVVQDWGHHRCT-CONH2 [Ac-compstatin] | 3 | –
Ac-ICVWQD(5fW)GAHRCT-CONH2 [Ac-V4W/W7(5fW)/H9A] | 121 | –
Ac-ICVWQDWGAHRCT-CONH2 [Ac-V4W/H9A] | 45 | –
Ac-ICVWQDWGAHRCdT-COOH [Ac-V4W/H9A/T13dT-OH] | 55 | –
Ac-ICVYQDWGAHRCT-CONH2 [Ac-V4Y/H9A] | 14 | –
H-GICV(5fW)QD(5fW)GAHRCTN-COOH (H-GICV[Trp(5-F)]QD[Trp(5-F)]GAHRCTN-OH; not fully specified (bridges); cysteine pairing not given here) [G/V4(5f-W)/W7(5fW)/H9A + N-OH] | 112 | –
H-GICV(6fW)QD(6fW)GAHRCTN-COOH (H-GICV[Trp(6-F)]QD[Trp(6-F)]GAHRCTN-OH; not fully specified (bridges); cysteine pairing not given here) [+G/V4(6fW)/W7(6fW)H9A + N-OH] | 126 | –
